Results on three molecules are retold here after patent US4071622A, “Treatment of a mammary or DMBA inducible tumor” (Abbott Laboratories, priority 1976, dated 1978).

The subject of the assay is DMBA-induced tumors. Put plainly: Regression of DMBA-induced tumors in female rats, 11-day treatment. Type of assay: in vivo. Particulars: for total tumor volume of the treated group, day 3 / total tumor volume of the treated group, day 6 / total tumor volume of the treated group, day 10 / total tumor volume of the treated group upon sacrifice, day 11 / tumor volume of one specific animal, day 3 / tumor volume of one specific animal, day 6 / tumor volume of one specific animal, day 10 / tumor volume of one specific animal, day 11: 20 μg/day s.c., b.i.d.; for total tumor volume of the treated group, day 3: day 3 of treatment; for total tumor volume of the treated group, day 6: day 6 of treatment; for total tumor volume of the treated group, day 10: day 10 of treatment; for total tumor volume of the treated group upon sacrifice, day 11 / tumor volume of one specific animal, day 11: day 11, sacrifice; for total tumor volume of the treated group at the beginning of the treatment: day 0, 100 days after 20 mg DMBA intragastric, all tumors of the group summed; for tumor volume of one specific animal at start of treatment / tumor volume of one specific animal, day 3 / tumor volume of one specific animal, day 6 / tumor volume of one specific animal, day 10 / tumor volume of one specific animal, day 11: one animal of the group; for total volume reduction in one specific animal: start to day 11. On the procedure: In a group of 3 female, 50-day old rats, tumors were induced by intragastric feeding of 20 mg of 7,12-dimethylbenzanthracene (DMBA) in 2 ml. of sesame oil. The animals developed tumors within 10-12 weeks. All animals were maintained on normal rations for 100 days following the DMBA administration, at which time treatment with the compound identified as Compound A was started, using a b.i.d. regimen for 11 days, 20 μg/day, the compound being administered subcutaneously dissolved in isotonic saline containing 0.1% (wt/vol.) of bovine serum albumin.
The three animals carried a total of 7 tumors at the beginning of the treatment with a total volume of 39.2 cc. After 3 days, the 7 tumors had reduced to a volume of 26.7 cc; on day 6 the volume had reduced to 18.6 cc, on day 10 it was 8.7 cc, which was also the volume upon sacrifice of the animals on day 11.
The animals were prepared and pre-treated in the same fashion as those in Example 2, but Compound B was used for the 11-day treatment. The three rats used started the regimen with a total of 7 tumors of 43.3 cc total volume. Again, the tumor volumes were measured on days 3, 6, 10 and upon sacrifice, showing 37.5, 24.9, 16.3 and 15.0 cc respectively.
Except for the use of Compound C, all steps of the preceding two examples were repeated. The total of 13.4 cc of volume of 3 tumors in two rats was reduced to 10.1, 5.4, 6.4 and 5.5 cc on days 3, 6, 10 and 11. […] However, that tumor was found reduced to 3.0 cc on day 11. A third animal treated in the same fashion started out the regimen with 4 tumors of 28.1 cc which reduced to 15 cc by day 6. The animal died thereafter of causes diagnosed as having no connection with the tumors or the treatment (chronic murine pneumonia).

Consider `CCNC(=O)[C@@H]1CCCN1C(=O)[C@H](CCCNC(=N)N)NC(=O)[C@H](CC(C)C)NC(=O)[C@@H](Cc1c[nH]c2ccccc12)NC(=O)[C@H](Cc1ccc(O)cc1)NC(=O)[C@H](CO)NC(=O)[C@H](Cc1c[nH]c2ccccc12)NC(=O)[C@H](Cc1c[nH]cn1)NC(=O)[C@@H]1CCC(=O)N1` [Compound A], for which the “total tumor volume of the treated group, day 3” value (shortened to “total tumor volume … day 3”) is on record as 26.7 cc; the “total tumor volume of the treated group, day 6” value (“total tumor volume … day 6” below) worked out at 18.6 cc; the “total tumor volume of the treated group, day 10” value (from here on “total tumor volume … day 10”) turned out to be 8.7 cc; the “total tumor volume of the treated group upon sacrifice, day 11” value (“total tumor volume … day 11” below) came to 8.7 cc. The “tumor volume of one specific animal, day 3” value amounted to 7.5 cc; the “tumor volume of one specific animal, day 11” value is 3.76 cc; the “total volume reduction in one specific animal” value is 67.7%. Where the note is “baseline”, the “total tumor volume of the treated group at the beginning of the treatment” value (“total tumor volume … of the treatment” for short) was determined as 39.2 cc and the “tumor volume of one specific animal at start of treatment” value came out at 11.65 cc. For the same molecule, the “tumor volume of one specific animal, day 6” value (day 6) was found to be 8.1 cc. For the setting “day 10”, the “tumor volume of one specific animal, day 10” value is recorded as 3.8 cc.
Regarding `CCNC(=O)[C@@H]1CCCN1C(=O)[C@H](CCCNC(=N)N)NC(=O)[C@H](CC(C)C)NC(=O)[C@@H](Cc1ccc(O)cc1)NC(=O)[C@H](Cc1ccc(O)cc1)NC(=O)[C@H](CO)NC(=O)[C@H](Cc1c[nH]c2ccccc12)NC(=O)[C@H](Cc1c[nH]cn1)NC(=O)[C@@H]1CCC(=O)N1` [Compound B], the “total tumor volume … day 3” value is recorded as 37.5 cc; the “total tumor volume … day 6” value stood at 24.9 cc; the “total tumor volume … day 10” value was determined as 16.3 cc; the “total tumor volume … day 11” value worked out at 15.0 cc. In addition, the “tumor volume of one specific animal, day 3” value came out at 2.5 cc; the “tumor volume of one specific animal, day 11” value was determined as 0.125 cc; the “total volume reduction in one specific animal” value is on record as 96.5%. In addition, where the note is “baseline”, the “total tumor volume … of the treatment” value is given as 43.3 cc and the “tumor volume of one specific animal at start of treatment” value was 3.6 cc. The “tumor volume of one specific animal, day 6” value (day 6) stood at 1.33 cc. Also, under “day 10”, the “tumor volume of one specific animal, day 10” value is given as 0.73 cc.
For `CCNC(=O)[C@@H]1CCCN1C(=O)[C@H](CCCNC(=N)N)NC(=O)[C@H](CC(C)C)NC(=O)[C@@H](Cc1ccccc1)NC(=O)[C@H](Cc1ccc(O)cc1)NC(=O)[C@H](CO)NC(=O)[C@H](Cc1c[nH]c2ccccc12)NC(=O)[C@H](Cc1c[nH]cn1)NC(=O)[C@@H]1CCC(=O)N1` [Compound C], the “total tumor volume … day 3” value is reported as 10.1 cc; the “total tumor volume … day 6” value is 5.4 cc; the “total tumor volume … day 10” value is listed as 6.4 cc; the “total tumor volume … day 11” value is reported as 5.5 cc. Besides, the “total tumor volume … of the treatment” value (baseline) was 13.4 cc. Besides, the “volume of one single tumor in one animal, day 6” value (single tumor that spontaneously increased between days 6 and 10, day 6) worked out at 0.38 cc. For the same molecule, the “volume of one single tumor in one animal, day 10” value (single tumor that spontaneously increased between days 6 and 10, day 10) was 4.6 cc. In addition, the “volume of one single tumor in one animal, day 11” value (single tumor that spontaneously increased between days 6 and 10, day 11) stood at 3.0 cc. Also, the “tumor volume of a third animal with 4 tumors at start of regimen” value (third animal, not in the group total, baseline) was 28.1 cc. Further, the “tumor volume of a third animal with 4 tumors, by day 6” value (third animal, not in the group total, day 6, animal died thereafter of unrelated chronic murine pneumonia) stood at 15 cc.
